System: 6 mm excisional wounds on the back of db/db mice
Assay: Excisional wound healing in db/db mice (digital planimetry)
Format: in vivo, mouse
Details: topical on days 0, 2, 4, 6, 8, 10e-2, 10e-5, 10e-7 m oleuropein, treated (right) and untreated (left) wound, vs PBS
Experimental: Female db/db mice (BKS.Cg-m+/+Lepr^db) aged 10 to 12 weeks were used. They were obtained through Charles River Laboratories (Spain), the average weight of the animals upon reception was 35.64 g. Throughout the entire study, the animals were kept in animal houses particularly designed for allowing control of the animals' environment, such as relative humidity (30-70%), temperature (22±2° C.), air pressure, number of renewals and light period ( 12/12 hours of light/darkness). Access to water was “ad libitum” and the diet was a standard dry pellet diet for rats supplied by PanLab (Barcelona, Spain). After the acclimatization period, the mice were randomly distributed into the different study groups. […]
On day 0 of the experiment, two 6 mm excisional wounds were made on the back of every mouse under aseptic conditions and using surgical instruments. […] The wound healing process was tracked and evaluated throughout the experiment (see FIG. 3). […]
In order to track the wound healing, a digital planimetry method was used whereby the area of every wound was quantified. The inter-group differences have been determined by means of a two-way ANOVA statistical analysis followed by a Bonferroni post-hoc analysis. […]

VEGF
wound healing (wound area): healing effect
